Legend:
[1] = Particle size analysis by laser diffraction (Malvern 2600); type: physicochemical; details: BDP dispersed in 1% (w/v) span 85 in cyclohexane
Method: 3 Particle Size Analysis:
The particle size of both micronised BDP and spray dried BDP was determined in a liquid medium by laser diffraction, according to an independent model, using a Malvern 2600 laser diffraction sizer (Malvern Instruments, Malvern, Worcs, UK). BDP was measured using a 63 mm lens, after dispersion in a solution of 1% (w/v) span 85 in cyclohexane, saturated with the drug. Each sample was measured in triplicate.

[2] = In-vitro deposition of BDP from dry powder formulations aerosolised via Rotahaler into a twin stage impinger (TSI); type: physicochemical; details: TSI at 60 L/min, drug in lower stage of TSI
Source text: It was the aim of the current study to attempt to reduce the hydrophobic interaction that exists between BDP particles. Such interaction induces aggregate formation and potentially limits the fine particle dose available for pulmonary delivery. The objectives were to adsorb hydrophilic polymer to individual drug particles and to prepare a model dry powder formulation containing modified drug and lactose. A suspension of 1% w/v BDP in water containing either 0.05% or 0.1% PVA ((MWt 9-10 kDA) was spray dried to produce particles (volume mean diameter (VMD) 4.2 μm as determined by an Aerosizer time of flight particle sizing apparatus obtained from Amherst Process Instruments, Hadley, Mass., USA) suitable for intended delivery to the lung. The micronised drug (VMD […]) or spray dried drug was blended with lactose in a ratio 1:67.5 parts by weight and the resultant formulations filled into gelatin capsules for arosolisation via a Rotahaler device to a twin stage impinger (TSI) operated at 60 L min^−1. The Fine Particle Dose (FPD) (as determined from by the amount of drug reaching the lower stage of the TSI) was increased from 20.2 μg when micronised drug was employed to 46.7 μg when the lower PVA concentration was employed. […] The concentration of BDP was determined from calibration curves constructed using the standard solutions of BDP. […]

## CCC(=O)OCC(=O)[C@@]1(OC(=O)CC)[C@@H](C)C[C@H]2[C@@H]3CCC4=CC(=O)C=C[C@]4(C)[C@@]3(Cl)[C@@H](O)C[C@@]21C [micronised BDP, beclomethasone dipropionate]
[1]
  Volume mean diameter VMD(GSD): 5.18 (1.00) μm
[2]
  Fine particle dose (FPD) of BDP: 20.2 µg
